Laboratory results taken from ChEMBL document CHEMBL1821599 (J Med Chem, 2011).
Active and inactive are the calls of the source. No cut-off for these calls is given here. Where a SMILES comes first, the peptide text is derived from it. Bridges are numbered along the chain shown (N, C = ends). [ ]: non-standard residue; d: D form.

Key:
[1] = target: T1, Somatostatin receptor type 3 (Homo sapiens, UniProt P32745); assay: Inhibition of somatostatin-induced sst3 receptor internalization in human HEK cells at 10 uM after 30 mins by immunofluorescence microscopy; type: cell-based; conditions: HEK293
T1 sequence (P32745 whole entry): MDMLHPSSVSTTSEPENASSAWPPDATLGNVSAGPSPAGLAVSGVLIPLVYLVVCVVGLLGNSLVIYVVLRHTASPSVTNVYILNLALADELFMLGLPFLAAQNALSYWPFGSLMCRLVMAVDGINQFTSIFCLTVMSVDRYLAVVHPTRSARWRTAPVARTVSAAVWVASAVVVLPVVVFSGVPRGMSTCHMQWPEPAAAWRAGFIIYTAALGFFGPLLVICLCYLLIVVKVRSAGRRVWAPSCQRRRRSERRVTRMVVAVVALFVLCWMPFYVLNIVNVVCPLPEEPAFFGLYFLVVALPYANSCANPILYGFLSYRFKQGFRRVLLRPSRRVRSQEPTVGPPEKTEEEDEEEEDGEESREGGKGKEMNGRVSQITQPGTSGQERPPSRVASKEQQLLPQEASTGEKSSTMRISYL

[2] = target: Somatostatin receptor type 2 (Homo sapiens, UniProt P30874); assay: Displacement of 125I-[LTT]-SRIF-28 from human sst2 receptor in CCL39 cells after 2 hrs by autoradiography; type: cell-based
Somatostatin receptor type 2, sequence (P30874 whole entry): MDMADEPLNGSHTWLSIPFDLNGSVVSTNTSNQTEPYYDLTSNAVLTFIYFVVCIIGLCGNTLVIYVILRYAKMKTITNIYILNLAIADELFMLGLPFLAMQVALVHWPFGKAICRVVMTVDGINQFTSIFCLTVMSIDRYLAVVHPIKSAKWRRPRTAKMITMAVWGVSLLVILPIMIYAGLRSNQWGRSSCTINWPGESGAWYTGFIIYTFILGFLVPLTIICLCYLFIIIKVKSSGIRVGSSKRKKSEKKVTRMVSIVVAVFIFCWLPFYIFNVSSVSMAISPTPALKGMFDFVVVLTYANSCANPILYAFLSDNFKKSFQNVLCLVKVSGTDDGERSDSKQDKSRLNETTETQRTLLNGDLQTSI

[3] = target: Somatostatin receptor type 1 (Homo sapiens, UniProt P30872); assay: Displacement of 125I-[LTT]-SRIF-28 from human sst1 receptor in CHO cells after 2 hrs by autoradiography; type: cell-based
Somatostatin receptor type 1, sequence (P30872 whole entry): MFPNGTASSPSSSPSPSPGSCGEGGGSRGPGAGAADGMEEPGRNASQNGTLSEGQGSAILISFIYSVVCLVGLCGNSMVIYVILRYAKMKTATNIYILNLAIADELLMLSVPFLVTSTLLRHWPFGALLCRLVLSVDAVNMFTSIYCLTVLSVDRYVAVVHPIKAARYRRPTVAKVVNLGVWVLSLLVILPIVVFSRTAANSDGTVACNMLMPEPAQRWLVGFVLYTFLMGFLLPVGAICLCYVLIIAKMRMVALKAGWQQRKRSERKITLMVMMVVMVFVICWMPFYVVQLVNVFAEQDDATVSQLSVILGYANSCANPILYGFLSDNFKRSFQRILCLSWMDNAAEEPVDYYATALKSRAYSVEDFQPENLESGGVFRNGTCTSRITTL

[4] = target: T1, Somatostatin receptor type 3; assay: Induction of sst3 receptor internalization in human HEK cells after 30 mins by immunofluorescence microscopy; type: cell-based; conditions: HEK293
[5] = target: T1, Somatostatin receptor type 3; assay: Induction of sst3 receptor internalization in human HEK cells at 10 uM after 30 mins by immunofluorescence microscopy; type: cell-based; conditions: HEK293
[6] = target: Somatostatin receptor type 4 (Homo sapiens, UniProt P31391); assay: Displacement of 125I-[LTT]-SRIF-28 from human sst4 receptor in CCL39 cells after 2 hrs by autoradiography; type: cell-based
Somatostatin receptor type 4, sequence (P31391 whole entry): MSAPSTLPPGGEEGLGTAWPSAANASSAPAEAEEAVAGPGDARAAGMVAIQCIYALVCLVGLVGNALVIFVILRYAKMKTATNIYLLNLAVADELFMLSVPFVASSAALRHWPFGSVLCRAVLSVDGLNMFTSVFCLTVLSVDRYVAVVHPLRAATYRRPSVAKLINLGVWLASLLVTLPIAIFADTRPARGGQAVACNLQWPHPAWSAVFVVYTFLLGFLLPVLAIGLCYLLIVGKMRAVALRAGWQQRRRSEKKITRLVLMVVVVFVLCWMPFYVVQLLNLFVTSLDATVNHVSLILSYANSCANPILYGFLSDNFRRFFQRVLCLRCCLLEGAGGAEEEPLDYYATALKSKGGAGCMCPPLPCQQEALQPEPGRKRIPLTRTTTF

[7] = target: T1, Somatostatin receptor type 3; assay: Displacement of 125I-[LTT]-SRIF-28 from human sst3 receptor in CCL39 cells after 2 hrs by autoradiography; type: cell-based
[8] = target: Somatostatin receptor type 5 (Homo sapiens, UniProt P35346); assay: Displacement of 125I-[LTT]-SRIF-28 from human sst5 receptor in HEK293 cells after 2 hrs by autoradiography; type: cell-based
Somatostatin receptor type 5, sequence (P35346 whole entry): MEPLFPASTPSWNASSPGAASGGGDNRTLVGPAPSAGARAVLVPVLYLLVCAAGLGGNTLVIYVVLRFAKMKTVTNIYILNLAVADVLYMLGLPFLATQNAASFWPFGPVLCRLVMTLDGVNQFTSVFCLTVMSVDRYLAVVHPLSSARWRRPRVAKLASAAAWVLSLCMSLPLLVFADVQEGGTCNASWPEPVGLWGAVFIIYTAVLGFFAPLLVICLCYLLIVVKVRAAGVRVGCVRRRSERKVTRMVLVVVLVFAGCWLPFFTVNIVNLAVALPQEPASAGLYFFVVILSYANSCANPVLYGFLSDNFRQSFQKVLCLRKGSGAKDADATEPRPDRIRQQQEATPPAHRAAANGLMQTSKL

[9] = target: T1, Somatostatin receptor type 3; assay: Partial antagonist activity at human sst3 receptor expressed in CCL39 cells assessed as inhibition of somatostatin-induced luciferase reporter gene expression at 10 uM after 5 hrs; type: functional, cell-based
[10] = target: T1, Somatostatin receptor type 3; assay: Partial agonist activity at human sst3 receptor expressed in CCL39 cells after 5 hrs by luciferase reporter gene assay; type: functional, cell-based
[11] = target: T1, Somatostatin receptor type 3; assay: Agonist activity at human sst3 receptor expressed in CCL39 cells after 5 hrs by luciferase reporter gene assay; type: functional, cell-based

Row | SMILES | Activity [1] | IC50 [2] [nM] | IC50 [3] [nM] | Activity [4] | Activity [5] | IC50 [6] [nM] | IC50 [7] [nM] | IC50 [8] [nM] | Activity [9] | EC50 [10] [nM] | EC50 [11] [nM]
1 | C[C@@H](O)[C@@H]1NC(=O)[C@H](CCCCN)NC(=O)[C@@H](Cc2c[nH]c3ccccc23)NC(=O)[C@H](Cc2ccccc2)NC(=O)[C@H](Cc2ccccc2)NC(=O)[C@@H](N)CSSC[C@@H](C(=O)O)NC(=O)[C@H](Cc2ccccc2)NC1=O (H-CFF[dW]KTFC-OH; disulfide 1-8) | – | – | – | Active | – | – | – | 2.6 | – | – | 3.33
2 | C[C@@H](O)[C@@H]1NC(=O)[C@H](CCCCN)NC(=O)[C@@H](Cc2cn(Cc3ccccc3)cn2)NC(=O)[C@H](Cc2ccccc2)NC(=O)[C@H](Cc2ccccc2)NC(=O)[C@@H](N)CSSC[C@@H](C(=O)O)NC(=O)[C@H](Cc2ccccc2)NC1=O | Active | > 1000 | > 1000 | inactive | inactive | 590 | 75 | > 1000 | Active | 299 | –
3 | C[C@H](N)C(=O)NCC(=O)N[C@H]1CSSC[C@@H](C(=O)O)NC(=O)[C@H](CO)NC(=O)[C@H]([C@@H](C)O)NC(=O)[C@H](Cc2ccccc2)NC(=O)[C@H]([C@@H](C)O)NC(=O)[C@H](CCCCN)NC(=O)[C@@H](Cc2cn(Cc3ccccc3)cn2)NC(=O)[C@H](Cc2ccccc2)NC(=O)[C@H](Cc2ccccc2)NC(=O)[C@H](CC(N)=O)NC(=O)[C@H](CCCCN)NC1=O | – | 106 | > 1000 | Active | – | > 1000 | 15 | > 1000 | Active | 41 | –
4 | C[C@H](N)C(=O)NCC(=O)N[C@H]1CSSC[C@@H](C(=O)O)NC(=O)[C@H](CO)NC(=O)[C@H]([C@@H](C)O)NC(=O)[C@H](Cc2ccccc2)NC(=O)[C@H]([C@@H](C)O)NC(=O)[C@H](CCCCN)NC(=O)[C@H](Cc2ccc3ccccc3c2)NC(=O)[C@H](Cc2ccccc2)NC(=O)[C@H](Cc2ccccc2)NC(=O)[C@H](CC(N)=O)NC(=O)[C@H](CCCCN)NC1=O | – | 15 | 2.7 | Active | – | 12 | 1.5 | 69 | – | – | 0.35
5 | C[C@@H](O)[C@@H]1NC(=O)[C@H](CCCCN)NC(=O)[C@H](Cc2c[nH]c3ccccc23)NC(=O)[C@H](Cc2ccccc2)NC(=O)[C@H](Cc2ccccc2)NC(=O)[C@@H](N)CSSC[C@@H](C(=O)O)NC(=O)[C@H](Cc2ccccc2)NC1=O (H-CFFWKTFC-OH; disulfide 1-8) | – | – | – | Active | – | – | – | 16 | – | 4.7 | –

Results, then the molecule that gave them:

Row | Activity [1] | IC50 [2] [nM] | IC50 [3] [nM] | Activity [4] | Activity [5] | IC50 [6] [nM] | IC50 [7] [nM] | IC50 [8] [nM] | Activity [9] | EC50 [10] [nM] | EC50 [11] [nM] | SMILES
6 | Active | > 1000 | > 1000 | inactive | inactive | > 1000 | 164 | > 1000 | Active | 164 | – | C[C@@H](O)[C@@H]1NC(=O)[C@H](CCCCN)NC(=O)[C@H](Cc2cn(Cc3ccccc3)cn2)NC(=O)[C@H](Cc2ccccc2)NC(=O)[C@H](Cc2ccccc2)NC(=O)[C@@H](N)CSSC[C@@H](C(=O)O)NC(=O)[C@H](Cc2ccccc2)NC1=O
7 | – | 4.1 | 140 | Active | – | 16 | 2 | 41 | – | – | 0.87 | C[C@H](N)C(=O)NCC(=O)N[C@H]1CSSC[C@@H](C(=O)O)NC(=O)[C@H](CO)NC(=O)[C@H]([C@@H](C)O)NC(=O)[C@H](Cc2ccccc2)NC(=O)[C@H]([C@@H](C)O)NC(=O)[C@H](CCCCN)NC(=O)[C@@H](Cc2ccc(O)cc2)NC(=O)[C@H](Cc2ccccc2)NC(=O)[C@H](Cc2ccccc2)NC(=O)[C@H](CC(N)=O)NC(=O)[C@H](CCCCN)NC1=O
8 | – | 35 | 138 | Active | – | 25 | 13 | 556 | – | – | 15.7 | C[C@H](N)C(=O)NCC(=O)N[C@H]1CSSC[C@@H](C(=O)O)NC(=O)[C@H](CO)NC(=O)[C@H]([C@@H](C)O)NC(=O)[C@H](Cc2ccccc2)NC(=O)[C@H]([C@@H](C)O)NC(=O)[C@H](CCCCN)NC(=O)[C@H](Cc2ccc(O)cc2)NC(=O)[C@H](Cc2ccccc2)NC(=O)[C@H](Cc2ccccc2)NC(=O)[C@H](CC(N)=O)NC(=O)[C@H](CCCCN)NC1=O
9 | – | > 1000 | > 1000 | Active | – | > 1000 | 131 | > 1000 | Active | 315 | – | C[C@H](N)C(=O)NCC(=O)N[C@H]1CSSC[C@@H](C(=O)O)NC(=O)[C@H](CO)NC(=O)[C@H]([C@@H](C)O)NC(=O)[C@H](Cc2ccccc2)NC(=O)[C@H]([C@@H](C)O)NC(=O)[C@H](CCCCN)NC(=O)[C@H](Cc2cn(Cc3ccccc3)cn2)NC(=O)[C@H](Cc2ccccc2)NC(=O)[C@H](Cc2ccccc2)NC(=O)[C@H](CC(N)=O)NC(=O)[C@H](CCCCN)NC1=O
10 | – | 173 | 607 | Active | – | 41 | 6.7 | 6 | – | – | 0.53 | C[C@@H](O)[C@@H]1NC(=O)[C@H](CCCCN)NC(=O)[C@@H](Cc2ccc3ccccc3c2)NC(=O)[C@H](Cc2ccccc2)NC(=O)[C@H](Cc2ccccc2)NC(=O)[C@@H](N)CSSC[C@@H](C(=O)O)NC(=O)[C@H](Cc2ccccc2)NC1=O
11 | – | 1.6 | 4.1 | Active | – | 12 | 1 | 2.4 | – | – | 0.23 | C[C@H](N)C(=O)NCC(=O)N[C@H]1CSSC[C@@H](C(=O)O)NC(=O)[C@H](CO)NC(=O)[C@H]([C@@H](C)O)NC(=O)[C@H](Cc2ccccc2)NC(=O)[C@H]([C@@H](C)O)NC(=O)[C@H](CCCCN)NC(=O)[C@@H](Cc2ccc3ccccc3c2)NC(=O)[C@H](Cc2ccccc2)NC(=O)[C@H](Cc2ccccc2)NC(=O)[C@H](CC(N)=O)NC(=O)[C@H](CCCCN)NC1=O
